Measurements published in patent publication US20070254907A1, “COMPOSITIONS AND METHODS FOR CONTROLLING INFESTATION” (HATCHTECH PTY LTD, priority 2003, published 2007).
Entries after “also recorded” stand apart in the source; their conditions may differ. Where two headings read alike, the source gives them in different places.

Legend:
[1] = test system: Lice (L) and Plutella (P) eggs; conditions: Lice (L) and Plutella (P)
Plutella xylostella eggs [2] = experiment: Reversal of inhibition of Plutella egg hatching by added FeSO4; assay type: in vivo
Method: (§1) Within 24 hours of collection the following experimental design was chosen. Batches of eggs were exposed to 10 mM 6,6′-dimethyl-2,2′-dipyridyl for 2 seconds while additional batches of eggs were exposed to the solvent only (Methanol) for 2 seconds. All batches of eggs were allowed to air dry for 20 minutes at room temperature. The eggs were then given a 2 second exposure to FeSO4 at either 10, 5 or 1 mM, air dried and put in the incubator at 24° C. and allowed to hatch over the next 6 days. In addition, a positive control of 10 mM 6,6′-dimethyl-2,2′-dipyridyl was set up in which eggs were exposed to this compound for 2 seconds, air dried and placed in the incubator.
as §1, with “10 mM 5,5′-dimethyl-2,2′-dipyridyl for 2” for “10 mM 6,6′-dimethyl-2,2′-dipyridyl for 2”, “FeSO4 at 10, 5” for “FeSO4 at either 10, 5”, “put in an incubator at” for “put in the incubator at”, “of 10 mM, 5,5′-dimethyl-2,2′-dipyridyl was set” for “of 10 mM 6,6′-dimethyl-2,2′-dipyridyl was set”

Plutella xylostella eggs [3] = experiment: whole plant or invertebrate; assay type: in vivo
Method: The ovicidal efficacy of 2-acetyl-1-tetralone was also tested against Plutella eggs.

lice eggs = experiment: whole plant or invertebrate; assay type: in vivo; conditions: for H (number of eggs successfully hatched) / Ph (number of eggs partly hatched): per replicate, concentration not given
[4] = test system: Helicoverpa armigera eggs; experiment: Egg hatching of Helicoverpa armigera
B. ovis eggs = experiment: Egg hatching in Bovicola ovis; assay type: in vivo; conditions: 10 mM; for Number hatched in different replicates: 10 eggs per replicate; for % Inhibition: in comparison to the controls; for Number unhatched: per replicate
Method: B. ovis eggs were collected from the wool of sheep that were infested with this parasite. The eggs were collected using forceps and with the aid of a dissecting microscope and placed in 24 well tissue culture plates in duplicate lots of 10 eggs per replicate. The eggs were then exposed to either methanol alone (control) or the test compounds for either 10 minutes or 1 minute before being removed from the wells and placed into individual glass vials containing a diet at the base of the tube. The tubes were placed in plastic containers containing a salt solution (to keep humidity constant at 68%) and the containers maintained at a temperature 32° C. The eggs were monitored for hatching over the following 12 days and % hatch inhibition determined in comparison to the controls.

[5] = 10 mM chelator followed by 2 second exposure to 1 mM FeSO4
[6] = 10 mM chelator followed by 2 second exposure to 5 mM FeSO4
[7] = 10 mM chelator followed by 2 second exposure to 10 mM FeSO4
[8] = 10 mM chelator followed by 2 second exposure to MEOH
[9] = 10 mM chelator, 2 s, (+ve) control without second exposure
[10] = 10 and 1 mM, listed as 6,6′dimethyl-2,2′dipyridyl
[11] = Table 9, 0.001 mM, dipped 2-10 s, day 6 post laying
[12] = Table 9, 0.01 mM, dipped 2-10 s, day 6 post laying
[13] = Table 9, 0.1 mM, dipped 2-10 s, day 6 post laying
[14] = Table 9, 1 mM, dipped 2-10 s, day 6 post laying
[15] = Table 9, 10 mM, dipped 2-10 s, day 6 post laying
[16] = Table 10, eggs laid on cloth, 0.01 mM
[17] = Table 10, eggs laid on cloth, 0.1 mM
[18] = Table 10, eggs laid on cloth, 1 mM
[19] = Table 10, eggs laid on cloth, 10 mM
[20] = Table 11, eggs laid on parafilm, 0.01 mM
[21] = Table 11, eggs laid on parafilm, 0.1 mM
[22] = Table 11, eggs laid on parafilm, 1 mM
[23] = Table 11, eggs laid on parafilm, 10 mM

SMILES: Cc1cccc(-c2cccc(C)n2)n1 [6,6′-dimethyl-2,2′-dipyridyl]
- Ovicidal activity % ([1]; 0.1 mM): 0.00%
- Ovicidal activity % ([1]; 10 mM): 100.00%
- Activity class 0 = inactive 1 = low 2 = med 3 = high ([1]; listed as of 0.1 mM): 2 (a pLD50 value between 3 and 4 is considered moderately active (Class 2))
- Activity class 0 = inactive 1 = low 2 = med 3 = high ([1]; listed as of 10 mM): 2 (a pLD50 value between 3 and 4 is considered moderately active (Class 2))
- Number hatched (Plutella xylostella eggs [2]; [5]): 33
- Number unhatched (Plutella xylostella eggs [2]; [5]): 1
- % Inhibition (Plutella xylostella eggs [2]; 10 mM chelator followed by 2 second exposure to 1 mM FeSO4, relative to FeSO4 controls): 3%
- Number hatched (Plutella xylostella eggs [2]; [6]): 25
- Number unhatched (Plutella xylostella eggs [2]; [6]): 0
- % Inhibition (Plutella xylostella eggs [2]; 10 mM chelator followed by 2 second exposure to 5 mM FeSO4, relative to FeSO4 controls): 0%
- Number hatched (Plutella xylostella eggs [2]; [7]): 12
- Number unhatched (Plutella xylostella eggs [2]; [7]): 19
- % Inhibition (Plutella xylostella eggs [2]; 10 mM chelator followed by 2 second exposure to 10 mM FeSO4, relative to FeSO4 controls): 38%
- % Inhibition (Plutella xylostella eggs [2]; [8]): 90%
- Number hatched (Plutella xylostella eggs [2]; [8]): 3
- Number unhatched (Plutella xylostella eggs [2]; [8]): 28
- % Inhibition (Plutella xylostella eggs [2]; [9]): 100%
- Number hatched (Plutella xylostella eggs [2]; [9]): 0
- Number unhatched (Plutella xylostella eggs [2]; [9]): 44
- effect of added Fe in FeSO4 on the chelator's inhibition of egg hatching (Plutella xylostella eggs [2]; 10 mM chelator, then FeSO4 10, 5 or 1 mM): able to reverse the effects
- inhibition of egg hatching after MeOH alone post exposure (Plutella xylostella eggs [2]; 10 mM chelator, then MeOH): significant degree of inhibition of egg hatching
- effect on egg hatching of Plutella xylostella (words) (Plutella xylostella eggs [3]; 0.1 and 0.01 mM): no observable effects on egg hatching
- effect on egg hatching of Plutella xylostella (words) (Plutella xylostella eggs [3]; 10 and 1 mM, listed as 6,6′-dimethyl-2,2′dipyridyl): effective at inhibiting egg hatching
- effect on egg hatching of Plutella xylostella (words) (Plutella xylostella eggs [3]; [10]): strong ovicidal effects
- Ovicidal activity % (Plutella xylostella eggs [3]; Plutella (P), 1 mM): 100.00%
- Activity class 0 = inactive 1 = low 2 = med 3 = high (Plutella xylostella eggs [3]; Plutella (P), listed as of 1 mM): 2 (a pLD50 value between 3 and 4 is considered moderately active (Class 2))
- Number hatched (Plutella xylostella eggs [3]; [11]): 11
- Number unhatched (Plutella xylostella eggs [3]; [11]): 6
- % Inhibition (Plutella xylostella eggs [3]; Table 9, 0.001 mM, relative to control (100% MeOH)): 0%
- Number hatched (Plutella xylostella eggs [3]; [12]): 13
- Number unhatched (Plutella xylostella eggs [3]; [12]): 7
- % Inhibition (Plutella xylostella eggs [3]; Table 9, 0.01 mM, relative to control (100% MeOH)): 0%
- Number hatched (Plutella xylostella eggs [3]; [13]): 23
- Number unhatched (Plutella xylostella eggs [3]; [13]): 29
- % Inhibition (Plutella xylostella eggs [3]; Table 9, 0.1 mM, relative to control (100% MeOH)): 0%
- Number hatched (Plutella xylostella eggs [3]; [14]): 0
- Number unhatched (Plutella xylostella eggs [3]; [14]): 26
- % Inhibition (Plutella xylostella eggs [3]; Table 9, 1 mM, relative to control (100% MeOH)): 100%
- Number hatched (Plutella xylostella eggs [3]; [15]): 0
- Number unhatched (Plutella xylostella eggs [3]; [15]): 79
- % Inhibition (Plutella xylostella eggs [3]; Table 9, 10 mM, relative to control (100% MeOH)): 100%
- Number hatched (Plutella xylostella eggs [3]; [16]): 23
- Number unhatched (Plutella xylostella eggs [3]; [16]): 4
- % Inhibition (Plutella xylostella eggs [3]; Table 10, eggs laid on cloth, 0.01 mM, relative to controls): 12%
- Number hatched (Plutella xylostella eggs [3]; [17]): 49
- Number unhatched (Plutella xylostella eggs [3]; [17]): 0
- % Inhibition (Plutella xylostella eggs [3]; Table 10, eggs laid on cloth, 0.1 mM, relative to controls): 0%
- Number hatched (Plutella xylostella eggs [3]; [18]): 0
- Number unhatched (Plutella xylostella eggs [3]; [18]): 23
- % Inhibition (Plutella xylostella eggs [3]; Table 10, eggs laid on cloth, 1 mM, relative to controls): 100%
- Number hatched (Plutella xylostella eggs [3]; [19]): 0
- Number unhatched (Plutella xylostella eggs [3]; [19]): 53
- % Inhibition (Plutella xylostella eggs [3]; Table 10, eggs laid on cloth, 10 mM, relative to controls): 100%
- Number hatched (Plutella xylostella eggs [3]; [20]): 92
- Number unhatched (Plutella xylostella eggs [3]; [20]): 1
- % Inhibition (Plutella xylostella eggs [3]; Table 11, eggs laid on parafilm, 0.01 mM, relative to controls): 0%
- Number hatched (Plutella xylostella eggs [3]; [21]): 65
- Number unhatched (Plutella xylostella eggs [3]; [21]): 11
- % Inhibition (Plutella xylostella eggs [3]; Table 11, eggs laid on parafilm, 0.1 mM, relative to controls): 7%
- Number hatched (Plutella xylostella eggs [3]; [22]): 0
- Number unhatched (Plutella xylostella eggs [3]; [22]): 63
- % Inhibition (Plutella xylostella eggs [3]; Table 11, eggs laid on parafilm, 1 mM, relative to controls): 100%
- Number hatched (Plutella xylostella eggs [3]; [23]): 0
- Number unhatched (Plutella xylostella eggs [3]; [23]): 106
- % Inhibition (Plutella xylostella eggs [3]; Table 11, eggs laid on parafilm, 10 mM, relative to controls): 100%
- lice egg hatching (lice eggs; all time points examined (24-120 hr post egg laying)): completely inhibited
- H (number of eggs successfully hatched) (lice eggs; treated 24 hr post egg laying): 0
- Ph (number of eggs partly hatched) (lice eggs; treated 24 hr post egg laying): 0
- H (number of eggs successfully hatched) (lice eggs; treated 48 hr post egg laying): 0
- Ph (number of eggs partly hatched) (lice eggs; treated 48 hr post egg laying): 0
- H (number of eggs successfully hatched) (lice eggs; treated 72 hr post egg laying): 0
- Ph (number of eggs partly hatched) (lice eggs; treated 72 hr post egg laying): 0
- H (number of eggs successfully hatched) (lice eggs; treated 96 hr post egg laying): 0
- Ph (number of eggs partly hatched) (lice eggs; treated 96 hr post egg laying): 0
- H (number of eggs successfully hatched) (lice eggs; treated 120 hr post egg laying): 0
- Ph (number of eggs partly hatched) (lice eggs; treated 120 hr post egg laying): 0
- effect on egg hatching of Helicoverpa armigera (words) ([4]; 0.1 mM): no inhibition of egg hatching was observed
- effect on egg hatching of Helicoverpa armigera (words) ([4]; 10 and 1 mM): significantly inhibit the egg hatching
- effect on egg hatching of Helicoverpa armigera (words) [4, 10]: significantly inhibit egg hatching
- % Inhibition ([4]; Table 12, 0.001 mM, relative to control (100% MeOH)): 0%
- % Inhibition ([4]; Table 12, 0.01 mM, relative to control (100% MeOH)): 0%
- % Inhibition ([4]; Table 12, 0.1 mM, relative to control (100% MeOH)): 0%
- Number hatched ([4]; Table 12, 1 mM): 4
- Number unhatched ([4]; Table 12, 1 mM): 140
- % Inhibition ([4]; Table 12, 1 mM, relative to control (100% MeOH)): 97%
- Number hatched ([4]; Table 12, 10 mM): 7
- Number unhatched ([4]; Table 12, 10 mM): 98
- % Inhibition ([4]; Table 12, 10 mM, relative to control (100% MeOH)): 94%
- Number hatched ([4]; Table 13, 0.1 mM): 70
- Number unhatched ([4]; Table 13, 0.1 mM): 0
- % Inhibition ([4]; Table 13, 0.1 mM, relative to the control (100% MeOH)): 0%
- Number hatched ([4]; Table 13, 1 mM): 2
- Number unhatched ([4]; Table 13, 1 mM): 61
- % Inhibition ([4]; Table 13, 1 mM, relative to the control (100% MeOH)): 97%
- Number hatched ([4]; Table 13, 10 mM): 3
- Number unhatched ([4]; Table 13, 10 mM): 48
- % Inhibition ([4]; Table 13, 10 mM, relative to the control (100% MeOH)): 94%
- effect on egg hatching of Helicoverpa armigera (words) ([4]; concentrations below 1 mM): No inhibition was recorded
- egg hatching in the louse (B. ovis eggs; 10 or 1 minute exposure): completely inhibited
- Number hatched in different replicates (B. ovis eggs; 1 minute exposure): Rep 1. 0; also recorded: Rep 2. 0
- % Inhibition (B. ovis eggs; 1 minute exposure): 100%
- Number unhatched (B. ovis eggs; 1 minute exposure): 10
- Number hatched in different replicates (B. ovis eggs; 10 minute exposure): Rep 1. 0; also recorded: Rep 2. 0
- % Inhibition (B. ovis eggs; 10 minute exposure): 100%
- Number unhatched (B. ovis eggs; 10 minute exposure): 10
